Test results reported in paper PMC9693918, “May Sulfonamide Inhibitors of Carbonic Anhydrases from Mammaliicoccus sciuri Prevent Antimicrobial Resistance Due to Gene Transfer to Other Harmful Staphylococci?” (International Journal of Molecular Sciences, 2022).

These compounds were tested against T1, MscCAγ (M. sciuri γ-CA) (Mammaliicoccus sciuri, UniProt A0AB37HNM1) (assay: stopped-flow CO2 hydration assay, phenol red). Settings: not given.
T1 construct: gene OWO77_11715
T1 sequence (A0AB37HNM1 1-169): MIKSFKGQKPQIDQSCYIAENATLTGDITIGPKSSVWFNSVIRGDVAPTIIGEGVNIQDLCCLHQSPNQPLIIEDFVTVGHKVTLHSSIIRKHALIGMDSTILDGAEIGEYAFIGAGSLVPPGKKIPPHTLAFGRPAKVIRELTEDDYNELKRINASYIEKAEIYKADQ
Assay type: biochemical
Excerpt: stopped-flow CO2 hydration assay, phenol red on MscCAγ (M. sciuri γ-CA)

Row | SMILES | Ki [nM]
1 | NCCc1ccc(S(N)(=O)=O)cc1 [compound 6, 6] | 176

Same assay, conditions: read-out: KI (nM) ^a / MscCAγ

Row | SMILES | Ki [nM]
2 | CCN[C@H]1CN(CCCOC)S(=O)(=O)c2sc(S(N)(=O)=O)cc21 [BRZ] | 100
3 | NS(=O)(=O)c1nnc(NS(=O)(=O)c2ccccc2)s1 [BZA] | 444
4 | Cc1ccc(-c2cc(C(F)(F)F)nn2-c2ccc(S(N)(=O)=O)cc2)cc1 [CLX] | 3020
5 | NS(=O)(=O)c1cc(Cl)c(Cl)c(S(N)(=O)=O)c1 [DCP] | 8580
6 | NS(=O)(=O)c1cc2c(cc1Cl)NCNS2(=O)=O [HCT] | 18300
7 | NS(=O)(=O)c1ccc(S(=O)(=O)Nc2cccc3c(Cl)c[nH]c23)cc1 [IND] | 369
8 | CC(=O)N=c1sc(S(N)(=O)=O)nn1C [MZA] | 94.5
9 | O=C1NS(=O)(=O)c2ccccc21 [SAC] | 29700
10 | CCN1CCCC1CNC(=O)c1cc(S(N)(=O)=O)ccc1OC (stereo not shown) [SLP] | 2200
11 | NS(=O)(=O)c1ccc(N2CCCCS2(=O)=O)cc1 [SLT] | 405
12 | CC1(C)O[C@@H]2[C@@H](CO[C@@]3(COS(N)(=O)=O)OC(C)(C)O[C@@H]23)O1 [TPM] | 578
13 | Cc1onc(-c2ccccc2)c1-c1ccc(S(N)(=O)=O)cc1 [VLX] | 1540
14 | NS(=O)(=O)Cc1noc2ccccc12 [ZNS] | 923
15 | NS(=O)(=O)c1ccc(CCNS(=O)(=O)c2ccc([N+](=O)[O-])cc2CO)cc1 [compound 21, 21] | 83.4
16 | Nc1ccc(S(=O)(=O)Nc2ccc(S(N)(=O)=O)cc2)cc1 [compound 22, 22] | 72.5
